Results on three compounds are retold here after patent publication US20260001928A1 (CORTERIA PHARMACEUTICALS, priority 2022, published 2026).

SMILES strings stand for the structures. *1 amine or outer side, *2 acyl side, *3 side chain or, on linkers, in order; H or OH if unused. Where a SMILES comes first, the peptide text is derived from it. Side-chain parts run from the residue outwards. [ ]: non-standard residue; d: D form. The star is where a group is joined. C20 diacid = O=C(O)CCCCCCCCCCCCCCCCCCC(=O)*; γGlu = O=C(O)[C@H](CCC(=O)[*:2])N[*:1]; Decanoyl = CCCCCCCCCC(=O)*; Pentanoyl = CCCCC(=O)*; AEEA = NCCOCCOCC(=O)O; Aib = CC(C)(N)C(=O)O

The target of one data set is T1, human CRF2a receptor (Homo sapiens, UniProt Q13324).
T1 construct: expressed in transfected cells; host or cells: TeloHEAC cells
T1 sequence (Q13324 1-411): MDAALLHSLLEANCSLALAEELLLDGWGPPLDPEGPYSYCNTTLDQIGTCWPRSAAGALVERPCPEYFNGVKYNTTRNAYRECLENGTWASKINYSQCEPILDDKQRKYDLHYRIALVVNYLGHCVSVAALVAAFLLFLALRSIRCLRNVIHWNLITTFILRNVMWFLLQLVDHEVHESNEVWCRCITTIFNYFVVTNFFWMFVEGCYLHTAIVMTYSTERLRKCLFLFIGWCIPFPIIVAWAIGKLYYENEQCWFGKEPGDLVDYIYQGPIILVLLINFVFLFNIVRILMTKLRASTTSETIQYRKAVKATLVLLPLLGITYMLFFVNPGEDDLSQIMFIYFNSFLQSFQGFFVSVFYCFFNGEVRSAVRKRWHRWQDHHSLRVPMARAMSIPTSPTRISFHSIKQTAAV
As to the kind of experiment: Activity at human CRF2a receptor, cAMP functional assay in TeloHEAC cells. It counts as cell-based. Particulars: TeloHEAC cells stably expressing human CRF2a receptor, relative to urocortin 2 (100 nM = 100%). In a few lines: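 cAMP accumulation was measured by HTRF 665/620 nm ratio after 30 min at 37° C compound exposure (16 twofold dilutions) of CRF2a-expressing TeloHEAC cells, 10000/well, in HEPES-buffered HBSS plus IBMX. Activity was normalised to urocortin 2 at 100 nM (100%), and EC50 was the concentration giving half-maximal activation.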

The target in another data set is T2, CFR1R receptor (Homo sapiens, UniProt P34998).
T2 construct: host or cells: CHO-K1 (clone 2)
T2 sequence (P34998 24-415): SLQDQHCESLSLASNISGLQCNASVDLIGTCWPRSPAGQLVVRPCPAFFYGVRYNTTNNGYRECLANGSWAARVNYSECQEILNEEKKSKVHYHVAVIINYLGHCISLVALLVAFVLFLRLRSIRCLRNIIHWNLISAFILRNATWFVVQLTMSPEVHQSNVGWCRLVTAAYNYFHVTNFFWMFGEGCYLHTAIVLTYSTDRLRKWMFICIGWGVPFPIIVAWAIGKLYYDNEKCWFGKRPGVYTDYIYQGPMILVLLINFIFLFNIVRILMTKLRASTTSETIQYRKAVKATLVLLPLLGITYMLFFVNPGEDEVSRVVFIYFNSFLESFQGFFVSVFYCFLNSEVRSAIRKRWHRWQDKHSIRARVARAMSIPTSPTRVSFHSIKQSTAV
The data set can be described thus: Activity at anti-target CFR1R receptor, cAMP assay in CRF1R-overexpression CHO-K1 cells. It counts as cell-based. Particulars: 100% = Sauvagine at 100 nM. In a few lines: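 Uses frozen stocks of CHO-K1 clone 2 cells overexpressing human CRF1R, plated at 4000 cells/well final, with cAMP measured by the same protocol as the TeloHAEC line. Full-activation control: 100 nM Sauvagine.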
(Cyclic AMP is a second messenger, typically raised through Gs and lowered through Gi signalling.)

The nature of data set [1]: In vitro subcutaneous tissue supernatant (SCts) stability and metabolite identification, rat. The conditions noted are these: male, Sprague Dawley; rat subcutaneous tissue supernatant (SCts), 37° C, 2 h. It counts as in vitro ADME. More on the design: remaining at 2 h: dose or concentration left out as unconfirmed.
Data set [2] is described as follows: Chemical stability in buffer (pH 7.4 / pH 4.5), % purity loss. The conditions noted are these: 40° C. vs 5° C., 14 or 28 days; for Buffer stability pH 7.4 % purity loss: 100 mM phosphate buffer pH 7.4. It counts as physicochemical. In a few lines:
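LC-UV gave % loss after 14 or 28 days of storage at 5 °C or 40 °C. Samples were diluted supernatants from compound incubated 1 h at room temperature at 10 mg/mL target, in 100 mM acetate pH 4.5 or 100 mM phosphate pH 7.4.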

Data set [3] is described as follows: Pharmacokinetics in male Sprague Dawley rats after subcutaneous administration. The data set is classed as in vivo. The conditions noted are these: plasma, rat, SC, 0.05 mg/kg.
Assay in data set [4]: as above
The conditions noted are these: plasma, rat, IV, 0.025 mg/kg. It counts as in vivo.

The test system of the next data set is Sprague Dawley rats. As to the kind of experiment: Effect on systolic blood pressure, telemetry in Sprague Dawley rats. It counts as in vivo, rat. Particulars: 0.1 mg/kg SC. In a few lines:
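Values are % change from a 1 h pre-dose baseline in systolic pressure, tracked by telemetry for up to 48 hours after a single 0.1 mg/kg subcutaneous dose. Rats (Sprague Dawley, n=2 per peptide) carried aortic catheters and recovered at least 10 days post-surgery; duration of action marks the last time point still showing an effect.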

As to `CCCCC(=O)N[C@H](C(=O)N[C@@H](CC(C)C)C(=O)N[C@@H](CO)C(=O)N[C@@H](CC(C)C)C(=O)N[C@@H](CC(=O)O)C(=O)N[C@@H](C(=O)N1CCC[C@H]1C(=O)N[C@H](C(=O)N[C@@H](CCCCN)C(=O)N[C@@H](CC(C)C)C(=O)N[C@@H](CCCCNC(=O)CC[C@H](NC(=O)CCCCCCCCCCCCCCCCCCC(=O)O)C(=O)O)C(=O)N[C@@H](CCCCN)C(=O)N[C@H](C(=O)N[C@@H](CC(C)C)C(=O)N[C@@H](CC(C)C)C(=O)N[C@@H](CCC(=O)O)C(=O)N[C@@H](CCC(N)=O)C(=O)N[C@@H](CCC(=O)O)C(=O)N[C@@H](CCCCN)C(=O)N[C@@H](CCC(N)=O)C(=O)N[C@@H](CCCCN)C(=O)N[C@@H](C)C(=O)N[C@@H](CCC(N)=O)C(=O)N[C@@H](CCCNC(=N)N)C(=O)N[C@@H](CCC(=O)O)C(=O)N[C@@H](CCC(N)=O)C(=O)N[C@@H](C)C(=O)N[C@@H](CCC(=O)O)C(=O)N[C@H](C(=O)N[C@@H](CC(N)=O)C(=O)NC(C)(C)C(=O)N[C@@H](CCC(N)=O)C(=O)N[C@H](C(=O)N[C@@H](CC(C)C)C(=O)N[C@@H](C)C(=O)N[C@@H](CCC(N)=O)C(=O)N[C@H](C(N)=O)C(C)C)[C@@H](C)CC)[C@@H](C)O)[C@@H](C)CC)[C@@H](C)CC)C(C)C)C(C)C` [compound 222] (Pentanoyl-VLSLD[dV]PIKLK([γGlu-C20 diacid])KILLEQEKQKAQREQAETN[Aib]QILAQV-NH2), the EC50 (as a rule, the midpoint of the concentration-response curve) at human CRF2a receptor worked out at 0.14 nM. Moreover, at CFR1R receptor, the “Emax (% I)” value worked out at 50 % I. Further, the share remaining (as a rule, what is left of the initial amount, in per cent) at 2 h in data set [1] was found to be 62%. In data set [2], the “Buffer stability pH 7.4 % purity loss” value is listed as 0.0/Not Tested %. Also, in data set [3], the AUC(0-t) (in general, the area under the concentration-time curve up to a stated or last time point) is 2890 ng·h/mL; the peak level (Cmax) was 113 ng/mL; the Tmax (commonly the time from dosing to the highest level) amounted to 8 h; the half-life – broadly, the time in which the quantity being followed falls by half – is 12 h. Besides, in data set [4], the AUC(0-t) is 3320 ng·h/mL and the half-life was 7 h.
Compound `CCCCCCCCCC(=O)N[C@H](C(=O)N[C@@H](CC(C)C)C(=O)N[C@@H](CO)C(=O)N[C@@H](CC(C)C)C(=O)N[C@@H](CC(=O)O)C(=O)N[C@@H](C(=O)N1CCC[C@H]1C(=O)N[C@H](C(=O)N[C@@H](CCCCN)C(=O)N[C@@H](CC(C)C)C(=O)N[C@@H](CCCCNC(=O)CC[C@H](NC(=O)CCCCCCCCCCCCCCCCCCC(=O)O)C(=O)O)C(=O)N[C@@H](CCCCN)C(=O)N[C@H](C(=O)N[C@@H](CC(C)C)C(=O)N[C@@H](CC(C)C)C(=O)N[C@@H](CCC(=O)O)C(=O)N[C@@H](CCC(N)=O)C(=O)N[C@@H](CCC(=O)O)C(=O)N[C@@H](CCCCN)C(=O)N[C@@H](CCC(N)=O)C(=O)N[C@@H](CCCCN)C(=O)N[C@@H](CCCCN)C(=O)N[C@@H](CCC(N)=O)C(=O)N[C@@H](CCCNC(=N)N)C(=O)N[C@@H](CCC(=O)O)C(=O)N[C@@H](CCC(N)=O)C(=O)N[C@@H](C)C(=O)N[C@@H](CCC(=O)O)C(=O)N[C@H](C(=O)N[C@@H](CC(N)=O)C(=O)NC(C)(C)C(=O)N[C@@H](CCC(N)=O)C(=O)N[C@H](C(=O)N[C@@H](CC(C)C)C(=O)N[C@@H](C)C(=O)N[C@@H](CCC(N)=O)C(=O)N[C@H](C(N)=O)C(C)C)[C@@H](C)CC)[C@@H](C)O)[C@@H](C)CC)[C@@H](C)CC)C(C)C)C(C)C` [compound 223] (Decanoyl-VLSLD[dV]PIKLK([γGlu-C20 diacid])KILLEQEKQKKQREQAETN[Aib]QILAQV-NH2) registered an EC50 at human CRF2a receptor of 0.08 nM. In addition, at CFR1R receptor, the “Emax (% I)” value was 58 % I. The fraction remaining at 2 h in data set [1] is 79%. The “Buffer stability pH 7.4 % purity loss” value in data set [2] is reported as −0.1/Not Tested %. Further, in data set [3], the AUC(0-t) worked out at 698 ng·h/mL, the peak level (Cmax) was 67 ng/mL, the time of peak concentration (Tmax) was 2 h and the half-life is 6.5 h. In data set [4], this compound gave an AUC(0-t) of 1920 ng·h/mL and a half-life of 2.8 h.
`CCCCC(=O)N[C@H](C(=O)N[C@@H](CC(C)C)C(=O)N[C@@H](CO)C(=O)N[C@@H](CC(C)C)C(=O)N[C@@H](CC(=O)O)C(=O)N[C@@H](C(=O)N1CCC[C@H]1C(=O)N[C@H](C(=O)N[C@@H](CCCCN)C(=O)N[C@@H](CC(C)C)C(=O)N[C@@H](CCCCNC(=O)COCCOCCNC(=O)CC[C@H](NC(=O)CCCCCCCCCCCCCCCCCCC(=O)O)C(=O)O)C(=O)N[C@@H](CCCCN)C(=O)N[C@H](C(=O)N[C@@H](CC(C)C)C(=O)N[C@@H](CC(C)C)C(=O)N[C@@H](CCC(=O)O)C(=O)N[C@@H](CCC(N)=O)C(=O)N[C@@H](CCC(=O)O)C(=O)N[C@@H](CCCCN)C(=O)N[C@@H](CCC(N)=O)C(=O)N[C@@H](CCCCN)C(=O)N[C@@H](CCCCN)C(=O)N[C@@H](CCC(N)=O)C(=O)N[C@@H](CCCNC(=N)N)C(=O)N[C@@H](CCC(=O)O)C(=O)N[C@@H](CCC(N)=O)C(=O)N[C@@H](C)C(=O)N[C@@H](CCC(=O)O)C(=O)N[C@H](C(=O)N[C@@H](CC(N)=O)C(=O)NC(C)(C)C(=O)N[C@@H](CCC(N)=O)C(=O)N[C@H](C(=O)N[C@@H](CC(C)C)C(=O)N[C@@H](C)C(=O)N[C@@H](CCC(N)=O)C(=O)N[C@H](C(N)=O)C(C)C)[C@@H](C)CC)[C@@H](C)O)[C@@H](C)CC)[C@@H](C)CC)C(C)C)C(C)C` [compound 235] (Pentanoyl-VLSLD[dV]PIKLK([AEEA-γGlu-C20 diacid])KILLEQEKQKKQREQAETN[Aib]QILAQV-NH2) displayed an EC50 on human CRF2a receptor of 0.16 nM. Also, the “Emax (% I)” value at CFR1R receptor was 27 % I. Moreover, the EC50 on CFR1R receptor (cAMP) is above 250 nM. Also, the fraction remaining at 2 h in data set [1] came to 66%. For the same compound, the “Buffer stability pH 4.5 % purity loss” value in data set [2] (100 mM acetate buffer pH 4.5) is recorded as −1.6%. The “Buffer stability pH 7.4 % purity loss” value in data set [2] is reported as 0.0%. In addition, in the data set on Sprague Dawley rats (8 h, n=2), the “Systolic blood pressure (Mean) % change from baseline, 8 h” value is −8%. In the data set with Sprague Dawley rats (12 h, n=2), the “Systolic blood pressure (Mean) % change from baseline, 12 h” value was −7%. The “Systolic blood pressure (Mean) % change from baseline, 24 h” value in the data set with Sprague Dawley rats (24 h, n=2) is reported as −12%. This compound had a Duration of action in the data set with Sprague Dawley rats (last time point with an effect on BP still observed) above 24 h. In data set [4], the AUC(0-t) was 4510 ng·h/mL and the half-life is 8 h.
